US20200178534A1, “INDUCTION OF FLORAL DEVELOPMENT IN PLANTS” (priority 2016, published 2020)

Assays:
[1] = tested on: Arabidopsis thaliana, ecotype Columbia (Col-0) and attps7 knockout mutants; assay: Appearance of flower buds / flowering time after spraying T6P signalling precursor; type: in vivo; set-up: key to flower bud had appeared (individual plant N): X: shown as crosses in highlighted boxes; conditions: for flower bud had appeared (individual plant N): 1 mM spray, day 5 after spraying
Description: In both cases it is possible to advance the development of the flowering inflorescence by several centimetres and advance flowering time by up to a week.
(§1) Seeds of Arabidopsis thaliana, ecotype Columbia (Col-0) and attps7 knockout mutants were surface-sterilized with 70% of ethanol for 2 min and 75% household bleach for 7 min, and grown on nutrient agar media (0.5×Murashige and Skoog plus Gamborg's vitamins (Sigma). 0.5% Sucrose and 0.7% Agar) in Petri plates. Seeds on the Petri plates were placed in a growth chamber (22° C., 150 μmol m^−2 s^−1, 16-h day). Seven days after plating, seedlings were transferred to pots of soil containing Rothamsted standard compost mix and full nutrition (one seedling per pot). Forty plants per A. thaliana type (n=40 Col-0, n=40 TPS7_3, n=40 TPS7_4.15) were grown at 22CC, 250 μmol m^−2 s^−1 irradiance, 16-h day. Eight days after sowing (DAS) plants were sprayed with 0.5 ml 1 mM oNPE-T6P (ortho-nitrphenyl)ethyl trehalose 6-phosphate dissolved in distilled water with the addition of 0.1% of Tween20 during the middle of the mid-photoperiod. Twenty-four hours after spraying (9 DAS), plants sprayed with 1 mM oNPE-T6P were exposed to 600 μmol m^−2 s^−1 irradiance for 1 h to release T6P from oNPE-T6P. Spraying was repeated at 12 and 16 DAS.
First, the appearance of the flower bud was quicker in plants sprayed with oNPE-T6P than with water.

[2] = tested on: Arabidopsis thaliana, ecotype Columbia (Col-0) and attps7 knockout mutants; assay: Height of the flowering inflorescence at 26 DAS after spraying T6P signalling precursor; type: in vivo; conditions: versus water control
Description: Right hand bars in each panel represent plants treated with 1 mM oNPE. Left hand bars in each panel represent plants treated with water (controls). […] This reflects the advancement of flowering by oNPE.
as §1
Height of the flowering inflorescence was then measured at 26 DAS. […]

CC(OP(=O)(OC[C@H]1O[C@H](O[C@H]2O[C@H](CO)[C@@H](O)[C@H](O)[C@H]2O)[C@H](O)[C@@H](O)[C@@H]1O)OC(C)c1ccccc1[N+](=O)[O-])c1ccccc1[N+](=O)[O-] (stereo partly drawn) [oNPE-T6P, 6-O-bis[1-(2-nitrophenyl)-ethoxyphosphoryl]-D-trehalose]
flower bud had appeared (individual plant N) ([1]; Col-0): X
flower bud had appeared (individual plant N) ([1]; TPS7_3 mutant): X
flower bud had appeared (individual plant N) ([1]; TPS7_4.15 mutant): X
appearance of the flower bud compared with water ([1]; plants sprayed with 1 mM, versus water): quicker
height of the flowering inflorescence ([2]; Col-0, 1 mM): taller inflorescences
height of the flowering inflorescence ([2]; tps7, 1 mM): taller inflorescences
